Laboratory results reported in patent US20080306080A1, “NEUTROPHILIA INHIBITOR” (Nissan Chemical Industries, Ltd., priority 2003, published 2008).

Legend:
[1] = tested on: neutrophilia in the rat airway; assay: Effect on neutrophilia in the rat airway (LPS inhalation, neutrophil count in bronchoalveolar washings); type: in vivo, Wister rats; settings: oral 1 mg/kg, 3 mg/kg and 10 mg/kg, 30 min before LPS inhalation; washings about 5 hours after inhalation
Procedure: Male Wister rats weighing from 100 to 200 g were put in a clear plastic inhalation box for small animals (W30×H30×D30 cm), and 30 mL of a lipopolysaccharide solution (LPS E. coli 0.3 mg/mL saline) atomized to an average particle size of 2.0-6.0 μm was administered by inhalation from an ultrasonic nebulizer (TUR-3200, NIHON KOHDEN) for 30 minutes.
The lipopolisaccharide inhalation was preceded, 30 minutes in advance, by oral administration of Compound A suspended in 0.5% methylcellulose (MC) at doses of 1 mg/4 mL/kg, 3 mg/4 mL/kg and 10 mg/4 mL/kg, or by oral administration of 0.5% MC at a dose of 2 mL/kg to a solvent group. […]
About 5 hours after the lipopolisaccharide inhalation, bronchoalveolar washings were collected. […] The total number of leukocytes in the suspension was counted with a multichannel blood cell counter and designated as the total leukocyte count.
Further, after the cell suspension was adjusted to a total leukocyte count of 1×10^6 cells/mL, 100 μL of the suspension was centrifuged at room temperature at 400 rpm for 4 minutes in a cytocentrifuge (Thermo Shandon) and made into smears. The smears were stained with Diff-Quick (International Reagents Co., Ltd.), and monocytes, eosinophils and neutrophils were counted under an inverted microscope (×400) to about 500 cells. […]

[2] = tested on: airway neutrophilia induced by exposure to tobacco smoke; assay: Guinea pig respiratory dysfunction model with airway neutrophilia induced by exposure to tobacco smoke; type: in vivo, Hartley guinea pigs; settings: oral 10 mg/kg before each tobacco smoke exposure, 3 weeks, measured the day after
Procedure: Hartley guinea pigs weighing from 350 to 450 g were exposed to cigarette smoke for an hour per day, five days per week, for 3 weeks, by using a tobacco smoke exposer and an exposure chamber (Flow-pasttype nose-only inhalation chamber, Muenster).
The tobacco smoke exposure was preceded, 15-45 minutes in advance, by oral administration of the compound suspended in 0.5% methylcellulose (MC) at a dose of 10 mg/2 mL/kg or by oral administration of 0.5% MC at a dose of 2 mL/kg to a solvent group. To the non-treatment group, 0.5% MC was orally administered at a dose of 2 mL/kg, 15-45 minutes before air exposure. From 4 to 6 […] were carried out for each group. The airway resistances and neutrophil counts were measured the day after three weeks of the tobacco smoke exposure. The airway resistances were measured by double chamber plethysmography with a respiratory function tester (Puloms-1, M.I.P.S.) during wakefulness. The neutrophil counts were measured in the same manner as in Test Example 1. The effect of Compound A was evaluated by calculating the suppression ratio (%) in accordance with the following formula.
Suppression ratio=((measured value for the control group−measured value for the normal value)−(measured value for the Compound A group−measured value for the normal group))×100/(measured value for the control group−measured value for the normal value)

Cl.O=c1[nH]nc(OCCCc2ccc(Cl)cc2)c(NCc2cccnc2)c1Br [Compound A, 4-bromo-6-[3-(4-chlorophenyl)propoxy]-5-(3-pyridylmethylamino)-3(2H)-pyridazinone hydrochloride]
antineutrophilia effect in the rat airways (neutrophil counts in bronchoalveolar washings) [1]: had antineutrophilia effect
suppression ratio of increase in airway resistance ([2]; double chamber plethysmography): 100%
suppression ratio of neutrophilia (neutrophil count) [2]: 73%
